In ChEMBL document CHEMBL5728999, “Sulfoximine glycosidase inhibitors” (2022):

Target: T1, Protein O-GlcNAcase (Homo sapiens, UniProt O60502)
T1 sequence (O60502 whole entry): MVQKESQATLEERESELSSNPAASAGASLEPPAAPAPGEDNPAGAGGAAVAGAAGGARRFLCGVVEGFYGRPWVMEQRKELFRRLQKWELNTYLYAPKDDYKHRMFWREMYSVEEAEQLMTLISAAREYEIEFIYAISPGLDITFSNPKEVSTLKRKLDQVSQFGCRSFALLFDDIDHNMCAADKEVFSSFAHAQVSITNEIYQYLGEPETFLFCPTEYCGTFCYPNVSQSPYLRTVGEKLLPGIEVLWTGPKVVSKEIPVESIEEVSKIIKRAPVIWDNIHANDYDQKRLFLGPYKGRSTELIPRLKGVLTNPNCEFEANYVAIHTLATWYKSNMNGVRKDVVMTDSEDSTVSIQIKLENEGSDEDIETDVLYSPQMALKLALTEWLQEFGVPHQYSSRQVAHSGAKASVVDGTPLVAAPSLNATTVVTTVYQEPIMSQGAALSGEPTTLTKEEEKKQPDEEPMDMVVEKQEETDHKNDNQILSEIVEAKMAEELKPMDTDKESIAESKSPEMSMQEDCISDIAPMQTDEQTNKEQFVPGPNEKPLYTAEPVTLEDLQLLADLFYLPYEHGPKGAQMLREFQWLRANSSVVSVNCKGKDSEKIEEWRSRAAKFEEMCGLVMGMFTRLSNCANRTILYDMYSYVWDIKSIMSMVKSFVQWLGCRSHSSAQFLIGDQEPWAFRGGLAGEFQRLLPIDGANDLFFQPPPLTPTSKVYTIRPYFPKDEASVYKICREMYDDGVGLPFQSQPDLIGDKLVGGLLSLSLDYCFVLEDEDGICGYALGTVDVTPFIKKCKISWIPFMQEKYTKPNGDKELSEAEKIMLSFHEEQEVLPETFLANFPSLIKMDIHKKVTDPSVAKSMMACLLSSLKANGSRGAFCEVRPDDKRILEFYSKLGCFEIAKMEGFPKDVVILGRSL
Test: Human O-GlcNAcase enzyme inhibition assay: 5 μl of the appropriate concentration of a solution of inhibitor in McIlvaine's Buffer (pH 6.5) in 2% DMSO (for a dose response curve calculation) is added into each well of a 384-well plate (Greiner, 781900). Then, 20 nM of His-Tagged hOGA and 10 μM of FL-GlcNAc (Fluorescein mono-beta-D-(2-deoxy-2-N-acetyl) glucopyranoside; Marker Gene Technologies Inc, M1485) were added to the 384-well plate for a final volume of 20 μl. After incubation for 60 min at room temperature, the reaction was terminated by the addition of 10 μL of stop buffer (200 mM glycine, pH 10.75).

CC(c1ccc2c(c1)OCC2)N1CCN(c2ncnc3c2CS(=N)(=O)C3)CC1 (stereo unspecified)
IC50: < 0.05 µM
